Usually IC50 stands for the concentration that gives 50% inhibition. For orientation: EC50 means the concentration at which the effect is half-maximal. As usually defined, the Emax is the greatest response seen or fitted, relative to the assay's reference.

In one series the test system is MCF7 cells. Description: MCF7 cell viability assay (CellTiter-Glo). Type of series: cell-based, human. The conditions noted are these: for IC50 / EC50: Homo sapiens; for EC50: absence of exogenous estradiol, Figure 1E, read-out: MCF7 cell viability EC50 (-E2). (ATP-based viability assays read luminescence as a measure of living cells.)
The subject of series [1] is Ishikawa endometrial cells. Put plainly: Alkaline phosphatase activity in Ishikawa endometrial cells. The series is classed as cell-based, human. The conditions noted are these: absence of estrogen.
The test system of another series is MCF7 ER.WT cells. Put plainly: Cell viability, MCF7 ER.WT cells (7 days). The series is classed as cell-based. The settings on record: Homo sapiens; for EC50: absence of estrogen; for IC50: presence of estrogen (0.1 nM), read-out: Cell viability IC50, ER.WT +E2.
The target of the next series is T1, GR (Homo sapiens, UniProt P04150).
T1 sequence (P04150 1-777): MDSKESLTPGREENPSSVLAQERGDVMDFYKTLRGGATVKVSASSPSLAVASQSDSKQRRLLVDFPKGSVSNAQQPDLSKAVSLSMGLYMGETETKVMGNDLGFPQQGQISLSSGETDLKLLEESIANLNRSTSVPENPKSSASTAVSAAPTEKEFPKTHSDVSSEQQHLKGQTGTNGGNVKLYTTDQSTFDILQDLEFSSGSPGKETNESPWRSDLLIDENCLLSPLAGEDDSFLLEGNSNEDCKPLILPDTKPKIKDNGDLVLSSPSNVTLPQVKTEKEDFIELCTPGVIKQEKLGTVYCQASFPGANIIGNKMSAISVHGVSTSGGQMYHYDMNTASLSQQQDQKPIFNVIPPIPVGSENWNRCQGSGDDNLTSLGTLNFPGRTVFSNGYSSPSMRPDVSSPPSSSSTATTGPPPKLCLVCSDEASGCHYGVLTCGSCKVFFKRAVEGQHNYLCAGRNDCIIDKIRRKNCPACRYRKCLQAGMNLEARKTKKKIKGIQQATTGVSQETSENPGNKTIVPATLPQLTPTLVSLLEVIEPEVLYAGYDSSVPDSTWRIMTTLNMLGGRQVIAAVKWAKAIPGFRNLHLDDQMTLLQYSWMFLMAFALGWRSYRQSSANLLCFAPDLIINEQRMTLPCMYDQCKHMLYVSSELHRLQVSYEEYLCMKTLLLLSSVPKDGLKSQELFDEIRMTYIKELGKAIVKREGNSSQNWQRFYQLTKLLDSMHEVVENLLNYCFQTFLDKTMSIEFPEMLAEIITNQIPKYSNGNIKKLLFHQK
Description: GR transcriptional reporter assay, agonist mode (CV1 cells). Type of series: cell-based. The conditions noted are these: CV-1; % of maximal dexamethasone-stimulated activity. As to the method:
CV1 cells were maintained in MEM supplemented with 10% FBS. Transcriptional assays were performed by seeding 12 mL of cells at a density of 250,000 cells/mL into a T-75 cell culture flask in MEM supplemented with 5% charcoal-stripped serum and allowed to attach overnight. Cells were transiently transfected using FuGENE 6 (Roche Applied Science). […] Transfected cells were incubated overnight then split into four 96-well tissue culture plates and incubated for 4 hr followed by compound addition. […] The final agonist concentration used in the antagonist assays was 10 nM.
A general note: A reporter such as luciferase makes a cellular process visible.

Another series deals with MCF7 tumors. Put plainly: MCF7 xenograft efficacy. Type of series: in vivo, mice. The settings on record: […]60 day E2 pellets; GDC-0810 100 mg/kg/day p.o.; fulvestrant clinically relevant dose (50 then 25 mg/kg s.c.) and 200 mg/kg 3 times per week; 28 days.
Another series relates to WHIM20 tumors. Type of series: in vivo, mice. The conditions noted are these: no E2 pellets; GDC-0810 100 mg/kg/day; tamoxifen 60 mg/kg/day; fulvestrant 50 mg/kg days 1, 3 and 7, 25 mg/kg weekly thereafter; 35 days. The text has this:
Figure 8. […] (B) Gene expression analysis of WHIM20 tumors after 4 days of dosing, harvested 8 hr after the final dose. […] (E) WHIM20 tumors were implanted in mice without supplemental 17β-estradiol pellets.
The WHIM20 patient derived xenograft model (WHIM20) was established via direct implantation of metastatic tumor material into immune compromised mice at Washington University in St. Louis ([Li et al., 2013]).
Tumors were established from fragments obtained from Washington University by subcutaneous implantation via 10G trocar into the right flank of 6–7 week old female NOD.CB17-Prkdc^scid/NcrCrl mice (Charles River Laboratories) and NOD.Cg-Prkdc^scid Il2rg^tm1Wjl/SzJ mice (Jackson Laboratories). Tumor line was propagated by serial transplantation. Animals were ovariectomized prior to initiation of treatment.

Setting [2] is: 120 h, MCF7, 5 d incubation, read-out: Cell viability CellTiter-Glo IC50.
[3] abbreviates: MCF7, 120 h, read-out: MCF7 cell viability IC50 (+ 0.1nM E2), presence of 0.1 nM estradiol, 5 day, Figure 1F.
Setting [4] is: MCF7, 168 h, 7 days, read-out: Cell viability EC50, ER.WT -E2.

Each structure is given as a SMILES string. Like-named read-outs stand apart in the source and are kept apart here.

In the case of `CC/C(=C(\c1ccc(O)cc1)c1ccc(OCCN(C)C)cc1)c1ccccc1` [4-OH Tam, 4-hydroxytamoxifen], the IC50 with MCF7 cells (setting [2]) stood at 0.53 ± 0.25 nM; with MCF7 cells (setting [3]), 30 nM; in the series on MCF7 ER.WT cells (MCF7, 168 h, 7 days), 19 nM. Also, the EC50 in the series with MCF7 cells (MCF7, 120 h, 5 day) amounted to 3.9 nM; in the series on MCF7 ER.WT cells (setting [4]) it was 3.2 nM. In addition, the “Cell viability CellTiter-Glo Emax” value in the series on MCF7 cells (MCF7, 5 d incubation) is on record as 48.0 ± 4.7 % E2. Besides, the Alkaline phosphatase activity entry in series [1] was “robustly increases alkaline phosphatase activity”. The molecule further registered an Emax on GR of 1.99 ± 1.52%.
For `CC/C(=C(/c1ccc(/C=C/C(=O)O)cc1)c1ccc2[nH]ncc2c1)c1ccc(F)cc1Cl` [GDC-0810], the 50% inhibitory concentration (IC50) in the series on MCF7 cells (setting [2]) came out at 2.5 ± 2.1 nM; in the series with MCF7 cells (setting [3]), 25 nM; in the series on MCF7 ER.WT cells (MCF7, 168 h, 7 days), 28 nM. In addition, the half-maximal effective concentration (EC50) came to 1 nM in the series with MCF7 cells (MCF7, 120 h, 5 day); 1 nM in the series on MCF7 ER.WT cells (setting [4]); 0.7 nM in the series with MCF7 ER.WT cells (MCF7, Figure 6—figure supplement 1D, read-out: Cell viability EC50, ER.WT (-E2)). Besides, the “Cell viability CellTiter-Glo Emax” value with MCF7 cells (MCF7, 5 d incubation) is on record as 24.6 ± 3.3 % E2. In addition, the Alkaline phosphatase activity result in series [1] is recorded as “modestly increases alkaline phosphatase activity”. Further, in the series on MCF7 tumors, the “Tumor growth response, MCF7 xenograft” value was “caused tumor regressions”. Also, in the series with WHIM20 tumors, the “Tumor growth response, WHIM20 PDX” value is reported as “induced tumor stasis”. Besides, at GR, the maximal response (Emax) was found to be 1.78 ± 1.21%.
For `C[C@]12CC[C@@H]3c4ccc(O)cc4C[C@@H](CCCCCCCCC[S+]([O-])CCCC(F)(F)C(F)(F)F)[C@H]3[C@@H]1CC[C@@H]2O` (stereo partly shown) [Fulvestrant], the half-inhibitory concentration (IC50) with MCF7 cells (setting [2]) was determined as 0.56 ± 0.7 nM; in the series on MCF7 cells (setting [3]) it was 9 nM; with MCF7 ER.WT cells (MCF7, 168 h, 7 days), 23 nM. For the same molecule, the 50% effective concentration (EC50) in the series on MCF7 cells (MCF7, 120 h, 5 day) came to 0.5 nM; with MCF7 ER.WT cells (setting [4]), 1.1 nM. For the same molecule, the “Cell viability CellTiter-Glo Emax” value with MCF7 cells (MCF7, 5 d incubation) was found to be 25.4 ± 3.7 % E2. For the same molecule, the Alkaline phosphatase activity entry in series [1] is recorded as “shows no such effect”. Also, the “Tumor growth response, MCF7 xenograft” value in the series with MCF7 tumors is “only modest tumor growth inhibition”. Further, the “Tumor growth response, WHIM20 PDX” value in the series on WHIM20 tumors was “tumor growth inhibition”.

The values above are taken from paper PMC4961458 (eLife, 2016).
